Holding throughout (type): cell-based
For one assay, the system named is BT-549 cells. Put plainly: Anti-proliferative toxicity of C63 in tumor cell lines (CCK8): BT-549. Conditions: Homo sapiens, 72 h, 3 days, read-out: Inhibition rate. As to the method:
(§1) Example 83: Detection of Anti-Proliferative Toxicity of C63 in Some Tumor Cell Lines
BT-549 cells (purchased from the Cell Bank of the Chinese Academy of Sciences, Cat. No. TCHu93) were subcultured in a culture medium (RPMI-1640 medium+1% penicillin-streptomycin dual-antibiotic solution++10% fetal bovine serum+0.01 mg/mL recombinant human insulin) in an incubator at 5% carbon dioxide and 37° C.
BT-549 cells were seeded at 5000 cells/well (90 μL) on a 96-well plate and cultured for 24 h.
(§2) 10 mM compound stock solutions were prepared in DMSO.
(§3) The compound stock solution was diluted with DMSO to give DMSO solutions 1-9 at concentrations of 0 μM, 2500 μM, 500 μM, 100 μM, 20 μM, 4 μM, 0.8 μM, 0.16 μM, and 0.032 μM.
(§4) 2 μL of each of solutions 1-9 was added to 98 μL of the medium to give mixed solutions 11-19 of the compound and the medium.
(§5) 10 μL of each of solutions 11-19 was added to the above cell seed solution to give a total volume of 100 μL (90 μL+10 μL).
(§6) The concentrations of the compound in the wells were 0 μM, 5.0 μM, 1.0 μM, 0.2 μM, 0.04 μM, 0.008 μM, 0.0016 μM, 0.00032 μM, and 0.000064 μM. All concentrations were in triplicate.
(§7) After the above-treated cells were cultured for 3 days, 10 μL of the CCK8 solution (DOJINDO, Cat. No. PF725) was added to each well. The plate was incubated in an incubator at 37° C. for 1-4 h and then detected on a microplate reader for the reading at 450 nm.

In the next assay the test system is DU 145 cells. Put plainly: Anti-proliferative toxicity of C63 in tumor cell lines (CCK8): DU 145. Conditions: Homo sapiens, 72 h, 3 days, read-out: Inhibition rate. The procedure: as §1
DU 145 cells (purchased from the Cell Bank of the Chinese Academy of Sciences, Cat. No. SCSP-5024) were subcultured in a culture medium (MVEM medium+[…] penicillin-streptomycin dual-antibiotic solution+10% fetal bovine serum) in an incubator at 5% carbon dioxide and 37° C.
DU 145 cells were seeded at 5000 cells/well (90 μL) on a 96-well plate and cultured for 24 h.
as §2, §3, §4, §5, §6, §7

The next assay relates to Ca Ski cells. As to the kind of experiment: Anti-proliferative toxicity of C63 in tumor cell lines (CCK8): Ca Ski. The note with it: Homo sapiens, 72 h, 3 days, read-out: Inhibition rate. As to the method:
as §1
Ca Ski cells (purchased from the Cell Bank of the Chinese Academy of Sciences, Cat. No. TCHu137) were subcultured in a culture medium (RPMI-1640 medium+1% penicillin-streptomycin dual-antibiotic solution+10% fetal bovine serum) in an incubator at 5% carbon dioxide and 37° C.
Ca Ski cells were seeded at 5000 cells/well (90 μL) on a 96-well plate and cultured for 24 h.
as §2, §3, §4, §5, §6, §7

The target of another assay is T1, GSPT1 (Homo sapiens, UniProt P15170+Q96SW2).
T1 construct: The downregulation of SRD5A3 and GSPT1 (eRF3a) proteins in PC-3 and HepG2 cells by C59; endogenous in cells; host or cells: 22Rv1, PC-3, HepG2
T1 sequence (P15170 1-637 isoform P15170-3): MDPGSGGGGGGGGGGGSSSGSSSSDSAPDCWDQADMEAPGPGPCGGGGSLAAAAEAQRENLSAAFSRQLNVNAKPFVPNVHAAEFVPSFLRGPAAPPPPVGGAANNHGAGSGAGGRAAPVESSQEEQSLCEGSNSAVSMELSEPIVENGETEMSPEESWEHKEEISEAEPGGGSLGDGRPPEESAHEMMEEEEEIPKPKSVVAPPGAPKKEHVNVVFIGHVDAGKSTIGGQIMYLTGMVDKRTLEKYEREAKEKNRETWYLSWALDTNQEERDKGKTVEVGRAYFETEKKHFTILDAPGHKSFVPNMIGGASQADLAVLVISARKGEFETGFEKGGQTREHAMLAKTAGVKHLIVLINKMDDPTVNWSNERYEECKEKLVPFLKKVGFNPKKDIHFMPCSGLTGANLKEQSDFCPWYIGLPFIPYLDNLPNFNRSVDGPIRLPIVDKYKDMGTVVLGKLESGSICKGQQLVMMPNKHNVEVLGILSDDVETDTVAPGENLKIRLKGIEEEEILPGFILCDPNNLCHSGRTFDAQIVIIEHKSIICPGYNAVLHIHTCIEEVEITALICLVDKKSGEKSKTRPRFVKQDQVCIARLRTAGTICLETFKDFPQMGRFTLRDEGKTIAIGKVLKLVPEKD
T1 sequence (Q96SW2 whole entry): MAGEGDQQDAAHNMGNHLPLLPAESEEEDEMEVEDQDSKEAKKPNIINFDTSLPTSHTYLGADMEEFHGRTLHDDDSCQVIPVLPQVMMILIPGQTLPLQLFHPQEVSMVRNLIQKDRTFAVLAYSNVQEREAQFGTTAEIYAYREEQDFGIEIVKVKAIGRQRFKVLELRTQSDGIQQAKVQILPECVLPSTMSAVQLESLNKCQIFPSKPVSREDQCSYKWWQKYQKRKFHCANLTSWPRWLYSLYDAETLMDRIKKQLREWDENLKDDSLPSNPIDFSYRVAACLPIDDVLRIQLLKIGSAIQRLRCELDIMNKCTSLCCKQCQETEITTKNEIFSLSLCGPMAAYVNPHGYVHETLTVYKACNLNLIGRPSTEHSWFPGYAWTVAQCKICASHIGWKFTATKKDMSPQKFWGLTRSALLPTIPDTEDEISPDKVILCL
T1 sequence (Q16531 whole entry partner): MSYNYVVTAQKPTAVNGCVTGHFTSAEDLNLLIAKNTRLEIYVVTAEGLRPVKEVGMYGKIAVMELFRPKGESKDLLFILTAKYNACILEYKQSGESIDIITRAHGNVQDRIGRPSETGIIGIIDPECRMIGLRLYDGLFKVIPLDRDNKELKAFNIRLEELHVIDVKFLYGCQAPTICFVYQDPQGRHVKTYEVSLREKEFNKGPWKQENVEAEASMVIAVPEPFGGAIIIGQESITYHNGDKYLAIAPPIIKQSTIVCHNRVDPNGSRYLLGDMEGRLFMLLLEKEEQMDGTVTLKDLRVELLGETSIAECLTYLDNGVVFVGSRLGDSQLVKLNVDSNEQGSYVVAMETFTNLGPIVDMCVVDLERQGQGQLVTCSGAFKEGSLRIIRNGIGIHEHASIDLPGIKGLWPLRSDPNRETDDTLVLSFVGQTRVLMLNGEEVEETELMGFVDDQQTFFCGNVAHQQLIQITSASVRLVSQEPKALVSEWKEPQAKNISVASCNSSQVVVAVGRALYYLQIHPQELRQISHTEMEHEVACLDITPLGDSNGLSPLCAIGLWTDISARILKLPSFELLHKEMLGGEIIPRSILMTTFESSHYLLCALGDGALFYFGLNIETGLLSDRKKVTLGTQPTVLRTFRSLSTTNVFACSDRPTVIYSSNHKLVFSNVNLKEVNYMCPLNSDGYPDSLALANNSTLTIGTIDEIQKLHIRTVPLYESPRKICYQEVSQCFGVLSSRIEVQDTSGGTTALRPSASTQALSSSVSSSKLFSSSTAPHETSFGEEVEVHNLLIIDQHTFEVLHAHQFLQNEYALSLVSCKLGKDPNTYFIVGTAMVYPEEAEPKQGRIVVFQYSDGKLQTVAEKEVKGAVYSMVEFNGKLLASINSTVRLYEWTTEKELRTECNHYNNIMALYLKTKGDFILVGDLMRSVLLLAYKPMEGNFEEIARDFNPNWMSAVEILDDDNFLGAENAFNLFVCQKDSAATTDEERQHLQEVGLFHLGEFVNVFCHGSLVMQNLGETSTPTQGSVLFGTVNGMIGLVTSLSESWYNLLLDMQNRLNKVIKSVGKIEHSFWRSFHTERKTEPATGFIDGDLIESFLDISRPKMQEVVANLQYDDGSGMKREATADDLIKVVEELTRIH
Put plainly: Western blot assay in 22Rv1 cells: GSPT1. The note with it: different concentrations at 24 h, and 3 nM at different time points (FIGS. 7 and 8). An excerpt:
Example 84: Western Blot Assay of Compound C59 in 22Rv1, PC-3, and HepG2 Cells
(1) Materials: 22Rv1, PC-3, and HepG2 cell, anti-SRD5A1 antibody (ab167606), anti-SRD5A2 antibody (ab124877), anti-SRD5A3 antibody (PA5-107029), anti-androgen receptor (AR) antibody (CST, No. 5153), anti-GSPT1 antibody (Abcam, ab234433), anti-GADPH antibody (CST, No. 5174), anti-c-Myc antibody (CST, No. 8583), anti-α-tublin antibody (CST, No. 2125), anti-rabbit IgG, HRP-linked antibody (CST, No. 7074), electrophoresis device and membrane transfer device (LIUYI, BEIJING; DYCZ-24DN)
Cell seeding: 22Rv1 (Cell Bank of the Chinese Academy of Sciences, TCHu100), PC-3 (Cell Bank of the Chinese Academy of Sciences, SCSP-532) and HepG2 cells (Cell Bank of the Chinese Academy of Sciences, TCHu72) were subcultured and trypsinized to prepare 6×10^5 cells/mL suspensions, seeded on 6-well plates (3 mL/well), and cultured overnight in a cell incubator at 5% CO2 and 37° C. […]
Protein quantification: The protein was quantified using a BCA protein quantification kit. […]
Western immunoblot assay (or Western blot, WB): SDS-PAGE gel at a proper concentration was prepared according to the molecular weight of the target protein: for example, the concentration of the separation gel was 8% and the concentration of the stacking gel was 5%. The loading volume was adjusted according to the protein quantification results. […]

For the compound `C[C@]12C=CC(=O)N[C@@H]1CC[C@@H]1[C@@H]2CC[C@]2(C)[C@@H](C(=O)Nc3cccc(N[C@@H]4CCC[C@@H](Nc5cccc6c5C(=O)N([C@H]5CCC(=O)NC5=O)C6=O)C4)c3)CC[C@@H]12` [C63, N-(3-(N—(N-(4-(2-(3S-(2,6-dioxopiperidine))-isoindole-1,3-dione))-1R,3R-cyclohexanediamine))phenyl)-3-oxo-4-aza-5α-androst-1-ene-17β-carboxamide], the inhibition at 64 pM with BT-549 cells (0.000064 μM) is 29.3%; with DU 145 cells (0.000064 μM) it was 22.1%; with Ca Ski cells (0.000064 μM) it was 2.03%. For the same compound, the inhibition at 0.00032 µM was 28% in the assay with BT-549 cells (0.000320 μM), 20.5% in the assay with DU 145 cells (0.000320 μM) and 6.27% with Ca Ski cells (0.000320 μM). Also, the inhibition at 0.0016 µM with BT-549 cells (0.001600 μM) turned out to be 77.5%; with DU 145 cells (0.001600 μM) it was 22.7%; with Ca Ski cells (0.001600 μM), 42.9%. For the same compound, the inhibition at 0.008 µM came out at 84.3% in the assay on BT-549 cells (0.008000 μM), 48.4% in the assay on DU 145 cells (0.008000 μM) and 65.4% in the assay on Ca Ski cells (0.008000 μM). The results for the inhibition at 0.04 µM in the assay with BT-549 cells (0.040000 μM), in the assay with DU 145 cells (0.040000 μM) and in the assay with Ca Ski cells (0.040000 μM) were 84.6%, 60.9% and 73.9%, respectively. The inhibition at 0.2 µM with BT-549 cells (0.200000 μM) was determined as 85.6%; in the assay with DU 145 cells (0.200000 μM), 74.3%; in the assay with Ca Ski cells (0.200000 μM), 78%. The inhibition at 1 µM is 84.3% in the assay on BT-549 cells (1.000000 μM), 81.9% in the assay with DU 145 cells (1.000000 μM) and 77.8% in the assay with Ca Ski cells (1.000000 μM). The inhibition at 5 µM was 87.5% in the assay on BT-549 cells (5.000000 μM), 82.4% with DU 145 cells (5.000000 μM) and 78.1% in the assay on Ca Ski cells (5.000000 μM).
For `C[C@]12C=CC(=O)N[C@@H]1CC[C@@H]1[C@@H]2CC[C@]2(C)[C@@H](C(=O)Nc3cccc(N[C@@H]4CCC[C@@H](Nc5cccc6c5C(=O)N(C5CCC(=O)NC5=O)C6=O)C4)c3)CC[C@@H]12` (stereo partly drawn) [C59, N-(3-(N—(N-(4-(2-(3-(2,6-dioxopiperidine))-isoindole-1,3-dione))-1R,3R-cyclohexanediamine))phenyl)-3-oxo-4-aza-5α-androst-1-ene-17β-carboxamide], the “downregulation of GSPT1 protein (Western blot)” value at GSPT1 is recorded as “downregulation”.

For the origin of these results see US20250213701A1, “MEDICAMENT FOR TREATING HUMAN TUMOR BASED ON ERF3A-TARGETING PROTEOLYSIS MECHANISM” (SUZHOU DEGEN BIO-MEDICAL CO., LTD., priority 2022, published 2025).
